Data from patent US11937601B2, “Method for treatment of soybean rust” (Globachem NV, priority 2020, dated 2024).

Experiments:
P. pachyrhizi [1] = test: Field trial, soybean rust severity and efficacy on naturally infected soybean; assay type: in vivo, Phakopsora pachyrhizi
Method: (§1) A field trial was conducted to evaluate the effect and efficacy of zoxamide on soybean rust disease on soybean (Glycine max) wherein plants were naturally infected by the disease (P. pachyrhizi). The trial was divided in the following 11 treatments: • TREATMENT 1: One treatment where plants were left untreated and in which natural progression of the disease was observed; • TREATMENT 2: One reference treatment which consisted of chlorothalonil applied in 1.3 kg/ha; • TREATMENT 3: One reference treatment which consisted of treatment with prothioconazole applied in 75 g/ha. • TREATMENT 4: One reference treatment with the mixture of prothioconazole and trifloxystrobin applied in amount of 70 g/ha of prothioconazole and 60 g/ha of trifloxystrobin. • TREATMENT 5: One reference treatment with wherein tebuconazole was applied in amount of 83.3 g/ha; mancozeb in amount of 1000 g/ha and picoxystrobin in amount of 66.6 g/ha. All four reference treatments (TREATMENTS 2-5) are currently available treatments of soybean rust, wherein the mentioned compositions were prepared from commercially available products prepared according to the respective label instructions and sprayed on the plants in amounts mentioned above and in Table 1 and 2. TREATMENTS 6-8: Three treatments wherein zoxamide was applied in different doses of (6) 180 g/ha, (7) 120 g/ha, and (8) 90 g/ha. TREATMENTS 9-11: Three treatments wherein zoxamide was applied together with prothioconazole in the following doses: (9) zoxamide 180 g/ha and prothioconazole 75 g/ha; (10) zoxamide 120 g/ha and prothioconazole 75 g/ha; and (11) zoxamide 90 g/ha and prothioconazole 75 g/ha. Each of the above treatments was applied on a plot of 3 meters by 6 meters in size and was repeated in 4 replicates. Zoxamide compositions used in this trial were prepared from the suspension concentrate containing 240 g/L of zoxamide, diluted with water to predetermined concentration, vegetable oil was added to concentration of 0.25% V/V, and such composition was sprayed on the plants in the predetermined amounts. First application of respective treatments was made when soybean plant reached BBCH growth stages around 60 to 75. Growth stages were defined according to Compendium of Growth Stage Identification Keys for Mono- and Dicotyledonous Plants, Extended BBCH scale, 2nd Edition 1997, ISBN 3-9520749-3-4. For each treatment, two applications of the respective treatment were made with 14 days interval between. Disease spread and defoliation were evaluated by visual estimation of degree of infection on leaves and defoliation. In Table 1 and Table 2, the following terms have the following meaning: % S—severity; % E—efficacy; 0.0%—disease progressed to maximum; 100.0%—no disease symptoms observed.

P. pachyrhizi [2] = test: Field trial, defoliation percent of soybean naturally infected by soybean rust; assay type: in vivo, Phakopsora pachyrhizi
Method: as §1

[3] = 7 days after first application, chlorothalonil 1296 g/ha
[4] = 7 days after second application, chlorothalonil 1296 g/ha
[5] = 14 days after first application, chlorothalonil 1296 g/ha
[6] = 14 days after second application, chlorothalonil 1296 g/ha
[7] = 21 days after second application, chlorothalonil 1296 g/ha
[8] = 28 days after second application, chlorothalonil 1296 g/ha
[9] = 7 days after first application, prothioconazole 75 g/ha
[10] = 7 days after second application, prothioconazole 75 g/ha
[11] = 14 days after first application, prothioconazole 75 g/ha
[12] = 14 days after second application, prothioconazole 75 g/ha
[13] = 21 days after second application, prothioconazole 75 g/ha
[14] = 28 days after second application, prothioconazole 75 g/ha
[15] = 7 days after first application, zoxamide 90 g/ha
[16] = 7 days after first application, zoxamide 120 g/ha
[17] = 7 days after first application, zoxamide 180 g/ha
[18] = 7 days after second application, zoxamide 90 g/ha
[19] = 7 days after second application, zoxamide 120 g/ha
[20] = 7 days after second application, zoxamide 180 g/ha
[21] = 14 days after first application, zoxamide 90 g/ha
[22] = 14 days after first application, zoxamide 120 g/ha
[23] = 14 days after first application, zoxamide 180 g/ha
[24] = 14 days after second application, zoxamide 90 g/ha
[25] = 14 days after second application, zoxamide 120 g/ha
[26] = 14 days after second application, zoxamide 180 g/ha
[27] = 21 days after second application, zoxamide 90 g/ha
[28] = 21 days after second application, zoxamide 120 g/ha
[29] = 21 days after second application, zoxamide 180 g/ha
[30] = 28 days after second application, zoxamide 90 g/ha
[31] = 28 days after second application, zoxamide 120 g/ha
[32] = 28 days after second application, zoxamide 180 g/ha

## N#Cc1c(Cl)c(Cl)c(Cl)c(C#N)c1Cl [CHLOROTHALONIL, chlorothalonil]
P. pachyrhizi [1]; [3]
  % E (efficacy): 100.00%
  % S (severity): 0.00%
P. pachyrhizi [1]; [4]
  % E (efficacy): 76.47%
  % S (severity): 5.00%
P. pachyrhizi [1]; [5]
  % E (efficacy): 66.67%
  % S (severity): 5.00%
P. pachyrhizi [1]; [6]
  % E (efficacy): 76.47%
  % S (severity): 5.00%
P. pachyrhizi [1]; [7]
  % E (efficacy): 68.11%
  % S (severity): 14.75%
P. pachyrhizi [2]; [7]
  Defoliation %: 50.00%
  Efficacy % (defoliation): 38.46%
P. pachyrhizi [2]; [8]
  Defoliation %: 60.00%
  Efficacy % (defoliation): 40.00%

## OC(Cc1ccccc1Cl)(Cn1nc[nH]c1=S)C1(Cl)CC1 (stereo not shown) [PROTHIOCONAZOLE, prothioconazole]
P. pachyrhizi [1]; [9]
  % E (efficacy): 100.00%
  % S (severity): 0.00%
P. pachyrhizi [1]; [10]
  % E (efficacy): 85.88%
  % S (severity): 3.00%
P. pachyrhizi [1]; [11]
  % E (efficacy): 100.00%
  % S (severity): 0.00%
P. pachyrhizi [1]; [12]
  % E (efficacy): 85.88%
  % S (severity): 3.00%
P. pachyrhizi [1]; [13]
  % E (efficacy): 62.16%
  % S (severity): 17.50%
P. pachyrhizi [2]; [13]
  Defoliation %: 50.00%
  Efficacy % (defoliation): 38.46%
P. pachyrhizi [2]; [14]
  Defoliation %: 70.00%
  Efficacy % (defoliation): 30.00%

## CCC(C)(NC(=O)c1cc(Cl)c(C)c(Cl)c1)C(=O)CCl (stereo not shown) [ZOXAMIDE, 3,5-dichloro-N-(3-chloro-1-ethyl-1-methyl-2-oxopropyl)-4-methyl benzamide]
P. pachyrhizi [1]; [15]
  % E (efficacy): 100.00%
  % S (severity): 0.00%
P. pachyrhizi [1]; [16]
  % E (efficacy): 100.00%
  % S (severity): 0.00%
P. pachyrhizi [1]; [17]
  % E (efficacy): 100.00%
  % S (severity): 0.00%
P. pachyrhizi [1]; [18]
  % E (efficacy): 85.88%
  % S (severity): 3.00%
P. pachyrhizi [1]; [19]
  % E (efficacy): 100.00%
  % S (severity): 0.00%
P. pachyrhizi [1]; [20]
  % E (efficacy): 100.00%
  % S (severity): 0.00%
P. pachyrhizi [1]; [21]
  % E (efficacy): 100.00%
  % S (severity): 0.00%
P. pachyrhizi [1]; [22]
  % E (efficacy): 100.00%
  % S (severity): 0.00%
P. pachyrhizi [1]; [23]
  % E (efficacy): 100.00%
  % S (severity): 0.00%
P. pachyrhizi [1]; [24]
  % E (efficacy): 76.47%
  % S (severity): 5.00%
P. pachyrhizi [1]; [25]
  % E (efficacy): 85.88%
  % S (severity): 3.00%
P. pachyrhizi [1]; [26]
  % E (efficacy): 100.00%
  % S (severity): 0.00%
P. pachyrhizi [1]; [27]
  % E (efficacy): 70.27%
  % S (severity): 13.75%
P. pachyrhizi [1]; [28]
  % E (efficacy): 81.08%
  % S (severity): 8.75%
P. pachyrhizi [1]; [29]
  % E (efficacy): 90.27%
  % S (severity): 4.50%
P. pachyrhizi [2]; [27]
  Defoliation %: 52.50%
  Efficacy % (defoliation): 35.38%
P. pachyrhizi [2]; [28]
  Defoliation %: 48.75%
  Efficacy % (defoliation): 40.00%
P. pachyrhizi [2]; [29]
  Defoliation %: 42.50%
  Efficacy % (defoliation): 47.69%
P. pachyrhizi [2]; [30]
  Defoliation %: 70.00%
  Efficacy % (defoliation): 30.00%
P. pachyrhizi [2]; [31]
  Defoliation %: 60.00%
  Efficacy % (defoliation): 40.00%
P. pachyrhizi [2]; [32]
  Defoliation %: 51.25%
  Efficacy % (defoliation): 48.75%
